In patent US10934297B2, “5-heteroaryl substituted indazole-3-carboxamides and preparation and use thereof” (Samumed, LLC, priority 2018, dated 2021):

What was measured:
[1] = test system: Wnt activity (Sp5-Luc reporter in SW480 cells); assay: Screening assay for Wnt activity: Sp5-Luc reporter gene assay in SW480 colon carcinoma cells; format: cell-based, human; conditions: Homo sapiens, 36 to 48 hours
Summary of the method: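 EC50 values come from a variable-slope four-parameter fit of luminescence normalized to DMSO-only wells. The read-out follows 36–48 h incubation at 37 °C, 5% CO2, in DMEM containing 1% fetal bovine serum. Cells are hygromycin-selected SW480 stably expressing firefly luciferase under a Wnt-responsive Sp5 promoter (eight TCF/LEF sites).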

DYRK1A kinase = DYRK1A kinase (Homo sapiens (Human), UniProt Q13627); assay: DYRK1A kinase assay (Ser/Thr 18 peptide Z-lyte FRET); format: biochemical; conditions: read-out: EC50 (method: IC50)
Summary of the method: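 Kinase reactions with compound ran 1 h at room temperature in duplicate, and development reagent was then added for another hour.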

GSK3β kinase = GSK3β kinase (Homo sapiens (Human), UniProt P49841); assay: GSK3β kinase assay (Ser/Thr 09 peptide Z-lyte FRET); format: biochemical; conditions: read-out: EC50 (method: IC50)
Summary of the method: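 Non-radioactive Z-lyte FRET read-out, kinase activity expressed as coumarin/fluorescein emission ratio. Compounds incubated with the reaction mixture one hour at room temperature in duplicate, then development buffer added for another hour. IC50 from non-linear regression of dose-response curves.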

[2] = test system: SW480 colon carcinoma cells; assay: Cell viability assay (CellTiter-Glo) in SW480 colon carcinoma cells; format: cell-based, human; conditions: Homo sapiens, 96 h, four days
Summary of the method: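 Viability was taken from CellTiter-Glo ATP luminescence, read about 12 min after reagent addition, relative to DMSO controls. The cells were Sp5-Luc reporter SW480 colon carcinoma cells, 2,000/well in 1% FBS DMEM, exposed to compound for four days at 37 °C.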

[3] = test system: primary human fibroblasts derived from IPF patients (LL29 cells); assay: Inhibition of the fibrotic process: αSMA staining in TGF-β1 treated LL29 fibroblasts; format: cell-based; conditions: Homo sapiens, Fibroblast, 96 h; LL29 cells, TGF-β1 20 ng/mL, 4 days, % αSMA positive cells
Summary of the method: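 LL29 fibroblasts from IPF patients, in F12 medium with 1% FBS, treated with TGF-β1 plus compound; TGF-β1 with DMSO as positive control, DMSO alone as negative control. After 4 days' incubation, SYTOX green nucleic acid stain added at 1 μM final, 30 min at room temperature.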

IL-6 = IL-6 inhibition in LPS-stimulated human peripheral blood mononuclear cells (HTRF); format: cell-based; conditions: Homo sapiens, PBMC; for EC50: huPBMCs, LPS 50 ng/mL, 22 hours, IL-6 HTRF; for inhibition at 10 µM: read-out: percent inhibition at 10 μM
Experimental: Fresh Normal PB MNC (Catalog #PB001, AllCells, Alameda, Calif.) were shipped overnight at 4° C. and resuspended in Roswell Park Memorial Institute (RPMI) 1640 Medium, with GlutaMAX Supplement (Catalog #61870127, ThermoFisher Scientific, Waltham, Mass.) supplemented with 1% Penicillin-Streptomycin (Catalog #15140163. ThermoFisher Scientific, Waltham, Mass.) and 1% fetal bovine serum (FBS) (Catalog #16140089, ThermoFisher Scientific, Waltham, Mass.) assay media. Fresh normal human peripheral blood mononuclear cells (huPBMCs) were resuspended in 1% FBS-RPMI assay media with 1% Penicillin-Streptomycin 1% to a cell concentration of 1×10e6 cells/mL. […] 50 ng/mL of Lipopolysaccharides from Escherichia coli 0111:B4 (Catalog #L5293-2ML, Sigma-Aldrich, St. Louis, Mo.) was added after 2 hours and cells were incubated for another 22 hours at 37° C.-5% CO2. After 22 hour incubation, a mixture of anti-IL6 XL665 and anti-IL-6 Cryptate diluted in reconstitution buffer (Catalog #62IL6PEC, Cisbio Inc., Bedford, Mass.) was added to each well. Following incubation for 3 hours at room temperature, Homogeneous Time-Resolved Fluorescence (HTRF) was measured using the Envision (Perkin Elmer, Shelton, Conn.) at 665 nm and […]. The ratio of fluorescence at 665 nm to 620 nm was used as a readout for IL-6 quantification. All samples were processed in duplicate. Readings were normalized to DMSO treated cells and normalized activities were utilized for EC50 calculations.

GSK3β kinase, sequence (P49841 whole entry): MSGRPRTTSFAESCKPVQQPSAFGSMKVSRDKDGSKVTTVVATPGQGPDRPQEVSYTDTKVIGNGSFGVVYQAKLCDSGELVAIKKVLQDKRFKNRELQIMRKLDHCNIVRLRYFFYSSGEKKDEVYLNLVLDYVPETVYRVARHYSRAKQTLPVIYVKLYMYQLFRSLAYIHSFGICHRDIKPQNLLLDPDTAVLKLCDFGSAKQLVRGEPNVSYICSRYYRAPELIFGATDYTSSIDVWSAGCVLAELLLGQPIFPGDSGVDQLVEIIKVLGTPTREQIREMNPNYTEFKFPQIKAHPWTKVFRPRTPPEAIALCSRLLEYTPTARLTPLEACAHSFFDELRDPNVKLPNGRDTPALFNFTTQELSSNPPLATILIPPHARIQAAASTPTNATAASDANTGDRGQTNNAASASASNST

| Compound | EC50 [1] | IC50 (DYRK1A kinase) | IC50 (GSK3β kinase) | EC50 [2] | EC50 [3] | EC50 (IL-6) | inhibition at 10 µM (IL-6) |
| --- | --- | --- | --- | --- | --- | --- | --- |
| CC(C)CN1CC[C@H](NC(=O)c2n[nH]c3ccc(-c4cnn(C)c4)cc23)[C@@H](F)C1 [Compound 33, N-((3 S,4S)-3-Fluoro-1-isobutylpiperidin-4-yl)-5-(1-methyl-1H-pyrazol-4-yl)-1H-indazole-3-carboxamide] | 267 nM | 24 nM | 36 nM | > 10000 nM | 43 nM | 3150 nM |  |
| CC(C)(F)CN1CCC(NC(=O)c2n[nH]c3ccc(-c4cn[nH]c4)cc23)CC1 [Compound 36, N-(1-(2-Fluoro-2-methylpropyl)piperidin-4-yl)-5-(1H-pyrazol-4-yl)-1H-indazole-3-carboxamide] | 474 nM | 7 nM | 23 nM | 691 nM | 147 nM | 348 nM |  |
| Cn1cc(-c2ccc3[nH]nc(C(=O)NC4CCN(CC(C)(C)F)CC4)c3c2)cn1 [Compound 37, N-(1-(2-Fluoro-2-methylpropyl)piperidin-4-yl)-5-(1-methyl-1H-pyrazol-4-yl)-1H-indazole-3-carboxamide] | 747 nM | 5 nM | 14 nM | 849 nM | 118 nM | 546 nM |  |
| Cn1cc(-c2cc(Cl)c3[nH]nc(C(=O)NC4CCN(CC(C)(C)F)CC4)c3c2)cn1 [Compound 38, 7-Chloro-N-(1-(2-fluoro-2-methylpropyl)piperidin-4-yl)-5-(1-methyl-1H-pyrazol-4-yl)-1H-indazole-3-carboxamide] | > 10000 nM | > 10000 nM | > 10000 nM | > 10000 nM | > 10000 nM | > 10000 nM | 8.8% |
| CCn1cc(-c2ccc3[nH]nc(C(=O)NC4CCN(CC(C)(C)F)CC4)c3c2)cn1 [Compound 39, 5-(1-Ethyl-1H-pyrazol-4-yl)-N-(1-(2-fluoro-2-methylpropyl)piperidin-4-yl)-1H-indazole-3-carboxamide] | 3880 nM | 22 nM | 33 nM | 1310 nM | 272 nM | 1260 nM |  |
| CC(C)(F)CN1CCC(NC(=O)c2n[nH]c3ccc(-c4cnn(C5CC5)c4)cc23)CC1 [Compound 40, 5-(1-Cyclopropyl-1H-pyrazol-4-yl)-N-(1-(2-fluoro-2-methylpropyl)piperidin-4-yl)-1H-indazole-3-carboxamide] | 1720 nM | 45 nM | 687 nM | 1080 nM | 68 nM | 1930 nM |  |
| Cn1ncc(-c2ccc3[nH]nc(C(=O)NC4CCN(CC(C)(C)F)CC4)c3c2)c1C(F)F [Compound 41, 5-(5-(Difluoromethyl)-1-methyl-1H-pyrazol-4-yl)-N-(1-(2-fluoro-2-methylpropyl)piperidin-4-yl)-1H-indazole-3-carboxamide] | 828 nM | 250 nM | 76 nM | 3000 nM | 342 nM | 2860 nM |  |
| Cc1noc(C)c1-c1ccc2[nH]nc(C(=O)NC3CCN(CC(C)(C)F)CC3)c2c1 [Compound 43, 5-(3,5-Dimethylisoxazol-4-yl)-N-(1-(2-fluoro-2-methylpropyl)piperidin-4-yl)-1H-indazole-3-carboxamide] | > 10000 nM | 67 nM | 1060 nM | > 10000 nM | 2170 nM | 9150 nM |  |
| CN1CC2(CCC(NC(=O)c3n[nH]c4ccc(-c5cnn(C)c5)cc34)CC2)C1 [Compound 45, 5-(1-Methyl-1H-pyrazol-4-yl)-N-(2-methyl-2-azaspiro [3.5]nonan-7-yl)-1H-indazole-3-carboxamide] | 1650 nM | 6 nM | 31 nM | 4770 nM | 355 nM | 1270 nM |  |
| O=C(Nc1ccc(F)cc1)c1n[nH]c2ccc(-c3cnn(C4CC4)c3)cc12 [Compound 46, 5-(1-Cyclopropyl-1H-pyrazol-4-yl)-N-(4-fluorophenyl)-1H-indazole-3-carboxamide] | 1460 nM | 4450 nM | 704 nM | 4500 nM | 543 nM | > 10000 nM | 48.3% |
| O=C(Nc1ccc(F)cc1)c1n[nH]c2ccc(-c3cnn(C4CCNCC4)c3)cc12 [Compound 48, N-(4-Fluorophenyl)-5-(1-(piperidin-4-yl)-1H-pyrazol-4-yl)-1H-indazole-3-carboxamide] | 239 nM | 23 nM | 260 nM | 354 nM | 449 nM | 5420 nM |  |
| O=C(Nc1ccc(F)cc1)c1n[nH]c2cc(F)c(-c3cnn(C4CCNCC4)c3)cc12 [Compound 49, 6-Fluoro-N-(4-fluorophenyl)-5-(1-(piperidin-4-yl)-1H-pyrazol-4-yl)-1H-indazole-3-carboxamide] | 256 nM | 15 nM | 187 nM | 208 nM | 1010 nM | 3730 nM |  |
| O=C(Nc1ccc(Cl)cc1)c1n[nH]c2cc(F)c(-c3cnn(C4CCNCC4)c3)cc12 [Compound 50, N-(4-Chlorophenyl)-6-fluoro-5-(1-(piperidin-4-yl)-1H-pyrazol-4-yl)-1H-indazole-3-carboxamide] | 1190 nM | 34 nM | 476 nM | 648 nM | 1110 nM | 6050 nM |  |
| CN1CCC(n2cc(-c3cc4c(C(=O)Nc5ccc(F)cc5)n[nH]c4cc3F)cn2)CC1 [Compound 51, 6-Fluoro-N-(4-fluorophenyl)-5-(1-(1-methylpiperidin-4-yl)-1H-pyrazol-4-yl)-1H-indazole-3-carboxamide] | 560 nM | 16 nM | 558 nM | 305 nM | 816 nM | 2560 nM |  |
| O=C(Nc1ccc(OC(F)F)cc1)c1n[nH]c2ccc(-c3cnn(C4CNC4)c3)cc12 [Compound 54, 5-(1-(Azetidin-3-yl)-1H-pyrazol-4-yl)-N-(4-(difluoromethoxy)phenyl)-1H-indazole-3-carboxamide] | 4380 nM | 244 nM | 2080 nM | > 10000 nM | 2920 nM | > 10000 nM | 9.7% |
| O=C(Nc1ccc(OC(F)F)cc1)c1n[nH]c2ccc(-c3cnn(C4CCNCC4)c3)cc12 [Compound 55, N-(4-(Difluoromethoxy)phenyl)-5-(1-(piperidin-4-yl)-1H-pyrazol-4-yl)-1H-indazole-3-carboxamide] | 428 nM | 37 nM | 1230 nM | 1340 nM | 236 nM | 3850 nM |  |
| O=C(Nc1ccc(OC(F)F)cc1)c1n[nH]c2cc(F)c(-c3cnn(C4CCNCC4)c3)cc12 [Compound 56, N-(4-(Difluoromethoxy)phenyl)-6-fluoro-5-(1-(piperidin-4-yl)-1H-pyrazol-4-yl)-1H-indazole-3-carboxamide] | 376 nM | 27 nM | 330 nM | 201 nM | 1530 nM | 2150 nM |  |
| CN1CCC(n2cc(-c3cc4c(C(=O)Nc5ccc(OC(F)F)cc5)n[nH]c4cc3F)cn2)CC1 [Compound 59, N-(4-(Difluoromethoxy)phenyl)-6-fluoro-5-(1-(1-methylpiperidin-4-yl)-1H-pyrazol-4-yl)-1H-indazole-3-carboxamide] | 555 nM | 28 nM | 1290 nM | 327 nM | 2540 nM | 2590 nM |  |
